Results as given in patent US10508105B2, “Indazole compounds as mGluR4 allosteric potentiators, compositions, and methods of treating neurological dysfunction” (Vanderbilt University, priority 2017, dated 2019).

Test system: not listed separately
Experiment: Brain-Plasma Kp
Assay type: in vivo
Conditions: rat, brain and plasma

Structure (SMILES) | Kp
O=C(Nc1ccc2c(OCC3CCOC3)n[nH]c2c1)c1ccccn1 (centres unmarked) | 2.09

Target: human mGlu4 (Homo sapiens (Human), UniProt Q14833)
Experiment: mGlu4 PAM assay in human mGlu4/Gqi5 cells with ~EC20 glutamate (Hamamatsu FDSS)
Assay type: cell-based
Conditions: ~EC20 concentration of glutamate, read-out: hmGluR4 PAM EC50
Procedure: The disclosed compounds and compositions can be evaluated for their ability to act as a potentiatior of metabotropic glutamate receptor activity, in particular mGluR4 activity, by any suitable known methodology known in the art. For example, Chinese Hamster Ovary (CHO) cells transfected with human mGluR4 or HEK cells co-transfected with rat mGluR4 and the G-protein regulated Inwardly Rectifying Potassium channel (GIRK) were plated in clear bottom assay plates for assay in a Hamamatsu FDSS Fluorometric Plate Reader. The cells were loaded with either a Ca2+-sensitive fluorescent dye or the thallium responsive dye and the plates were washed and placed into a suitable kinetic plate reader. For human mGluR4 assays, a fluorescence baseline was established for 3-5 seconds, the disclosed compounds were then added to the cells, and the response in cells was measured. Approximately two and a half minutes later, a concentration of mGluR4 orthosteric agonist (e.g. glutamate, L-AP4, or L-SOP) eliciting approximately 20% (EC20) of the maximal agonist response was added to the cells, and the response was measured. Two minutes later, a concentration of mGluR4 agonist (e.g. glutamate, L-AP4, or L-SOP) eliciting 80% (EC80) of the maximal agonist response was added to the cells, and the response was measured. For rat mGluR4/GIRK experiments, a baseline was established for approximately five seconds, disclosed compounds were added, and either an EC20 or EC80 concentration of agonist was added approximately two and one half minutes later.
The above described assay operated in two modes. In the first mode, a range of concentrations of the disclosed compounds are added to cells, followed by a single fixed concentration of agonist. If the compound acts as a potentiatior, an EC50 value for potentiation and a maximum extent of potentiation by the compound at this concentration of agonist is determined by non-linear curve fitting. If the compound acts as an antagonist, an IC50 value is determined by non-linear curve fitting. In the second mode, several fixed concentrations of the disclosed compounds are added to various wells on a plate, followed by a range in concentrations of agonist for each concentration of disclosed compound. The EC50 values for the agonist at each concentration of compound are determined by non-linear curve fitting. A decrease in the EC50 value of the agonist with increasing concentrations of the sample compound (a leftward shift of the agonist concentration-response curve) is an indication of the degree of mGluR4 potentiation at a given concentration of the sample compound. A decrease in the maximal response of the agonist with increasing concentrations of the sample compounds, with or without a rightward shift in agonist potency, is an indication of the degree of antagonism at mGluR4. The second mode also indicates whether the sample compounds also affect the maximum response to mGluR4 to agonists.

human mGlu4, sequence (Q14833 33-912): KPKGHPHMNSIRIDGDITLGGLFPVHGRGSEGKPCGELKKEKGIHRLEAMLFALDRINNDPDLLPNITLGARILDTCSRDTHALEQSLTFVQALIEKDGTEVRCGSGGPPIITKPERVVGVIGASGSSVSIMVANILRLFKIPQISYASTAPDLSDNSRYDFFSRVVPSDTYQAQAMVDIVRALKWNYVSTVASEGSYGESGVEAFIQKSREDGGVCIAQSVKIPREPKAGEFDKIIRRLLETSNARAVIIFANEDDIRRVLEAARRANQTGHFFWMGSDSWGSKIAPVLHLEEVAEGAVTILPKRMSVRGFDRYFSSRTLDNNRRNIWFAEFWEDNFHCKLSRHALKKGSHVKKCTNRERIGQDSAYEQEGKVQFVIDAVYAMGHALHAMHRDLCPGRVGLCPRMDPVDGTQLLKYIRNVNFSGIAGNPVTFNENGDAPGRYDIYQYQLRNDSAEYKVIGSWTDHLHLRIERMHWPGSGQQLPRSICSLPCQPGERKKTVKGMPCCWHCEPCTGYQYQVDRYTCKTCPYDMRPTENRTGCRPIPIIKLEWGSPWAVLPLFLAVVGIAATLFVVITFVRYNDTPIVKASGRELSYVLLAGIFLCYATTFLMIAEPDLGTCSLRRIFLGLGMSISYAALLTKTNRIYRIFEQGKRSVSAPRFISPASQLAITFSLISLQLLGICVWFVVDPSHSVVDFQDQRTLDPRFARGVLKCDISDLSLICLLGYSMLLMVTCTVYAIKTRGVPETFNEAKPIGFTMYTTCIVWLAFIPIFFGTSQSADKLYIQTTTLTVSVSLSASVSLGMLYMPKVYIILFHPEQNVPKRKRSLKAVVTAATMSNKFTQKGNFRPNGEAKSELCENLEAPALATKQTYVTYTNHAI

Structure (SMILES) | EC50
O=C(Nc1ccc2c(OCC3CCOC3)n[nH]c2c1)c1ccccn1 (centres unmarked) | 360 nM

Same assay, conditions: ~EC20 concentration of glutamate, read-out: mGlu4 PAM EC50

Structure (SMILES) | EC50
Cn1nc(OC2CCS(=O)(=O)CC2)c2ccc(Nc3n[nH]c4ncccc34)cc21 [Compound 48] | 335 nM
Cn1nc(OCC2CCOC2)c2ccc(Nc3n[nH]c4cccnc34)cc21 (centres unmarked) [Compound 49] | 30.5 nM
Cn1nc(OCC2CCOC2)c2ccc(Nc3n[nH]c4ncccc34)cc21 (centres unmarked) [Compound 50] | 135 nM
Cn1nc(OCC2CCOCC2)c2ccc(Nc3n[nH]c4cccnc34)cc21 [Compound 51] | 40.4 nM
Cn1nc(OCC2CCOCC2)c2ccc(Nc3n[nH]c4ncccc34)cc21 [Compound 52] | 157 nM
Cn1nc(OC2CCS(=O)(=O)C2)c2ccc(NC(=O)c3ccccn3)cc21 (centres unmarked) [Compound 53] | 272 nM
Cn1nc(OC2CCS(=O)(=O)C2)c2ccc(NC(=O)c3ncccc3N)cc21 (centres unmarked) [Compound 54] | 117 nM
Cn1nc(OCC2CCOC2)c2ncc(NC(=O)c3ccccn3)cc21 (centres unmarked) [Compound 55] | 873 nM
Cn1nc(OCC2CCOC2)c2ncc(NC(=O)c3ncccc3N)cc21 (centres unmarked) [Compound 56] | 86.8 nM
Cn1nc(OCC2CCOCC2)c2ncc(NC(=O)c3ccccn3)cc21 [Compound 57] | 255 nM
Cn1nc(OCC2CCOCC2)c2ncc(NC(=O)c3ncccc3N)cc21 [Compound 58] | 50.5 nM
Cn1nc(OCC2CCOCC2)c2ncc(NC(=O)c3ncccc3O)cc21 [Compound 59] | 599 nM
Cn1nc(OCC2CCOC2)c2ncc(Nc3n[nH]c4cccnc34)cc21 (centres unmarked) [Compound 60] | 293 nM
Cn1nc(OCC2CCOCC2)c2ncc(Nc3n[nH]c4cccnc34)cc21 [Compound 61] | 209 nM
Cn1nc(OCC2CCOCC2)c2ncc(Nc3n[nH]c4ncccc34)cc21 [Compound 62] | 353 nM
Cn1nc(OC2CCOC(C)(C)C2)c2ccc(Nc3n[nH]c4cccnc34)cc21 (centres unmarked) [Compound 63] | 169 nM
Cn1nc(OC2CCOCC2F)c2ccc(Nc3n[nH]c4cccnc34)cc21 (centres unmarked) [Compound 64] | 89 nM
CC1CC(Oc2nn(C)c3cc(Nc4n[nH]c5cccnc45)ccc23)CCO1 (centres unmarked) [Compound 65] | 134 nM
Cn1nc(OCCN2CCOCC2)c2ccc(Nc3n[nH]c4ncccc34)cc21 [Compound 66] | 398 nM
Cn1nc(OC2CCOC(C)(C)C2)c2ccc(NC(=O)c3ccccn3)cc21 (centres unmarked) [Compound 67] | 80.2 nM
Cn1nc(OC2CCOC(C)(C)C2)c2ccc(NC(=O)c3ncccc3N)cc21 (centres unmarked) [Compound 68] | 131 nM
Cn1nc(OC2CCOC(C)(C)C2)c2ccc(NC(=O)c3ncccc3O)cc21 (centres unmarked) [Compound 69] | 117 nM
Cn1nc(OC2CCOC[C@H]2F)c2ccc(NC(=O)c3ccccn3)cc21 (some centres unmarked) [Compound 70] | 84.7 nM
Cn1nc(OC2CCOCC2F)c2ccc(NC(=O)c3ncccc3N)cc21 (centres unmarked) [Compound 71] | 125 nM

Structure (SMILES) | EC50
Cn1nc(OC2CCOC[C@H]2F)c2ccc(NC(=O)c3ncccc3O)cc21 (some centres unmarked) [Compound 72] | 132 nM
CC1CC(Oc2nn(C)c3cc(NC(=O)c4ccccn4)ccc23)CCO1 (centres unmarked) [Compound 73] | 398 nM
CC1CC(Oc2nn(C)c3cc(NC(=O)c4ncccc4N)ccc23)CCO1 (centres unmarked) [Compound 74] | 431 nM
CC1CC(Oc2nn(C)c3cc(NC(=O)c4ncccc4O)ccc23)CCO1 (centres unmarked) [Compound 75] | 431 nM
Cn1nc(OCCN2CCOCC2)c2ccc(NC(=O)c3ccccn3)cc21 [Compound 76] | 703 nM
Cn1nc(OCCN2CCOCC2)c2ccc(NC(=O)c3ncccc3N)cc21 [Compound 77] | 133 nM
Cn1nc(OCCN2CCOCC2)c2ccc(NC(=O)c3ncccc3O)cc21 [Compound 78] | 255 nM
Cn1nc(OC[C@@H]2CCOC2)c2ccc(NC(=O)c3ncccc3N)cc21 [Compound 79] | 27.3 nM
Cn1nc(OC[C@H]2CCOC2)c2ccc(NC(=O)c3ncccc3N)cc21 [Compound 80] | 36.9 nM
Cn1nc(OC[C@H]2COCCO2)c2ccc(NC(=O)c3ccccn3)cc21 [Compound 81] | 205 nM
Cn1nc(OCC2COCCO2)c2ccc(NC(=O)c3ncccc3N)cc21 (centres unmarked) [Compound 82] | 66.1 nM
Cn1nc(OC[C@@H]2CCOC2)c2ncc(NC(=O)c3ncccc3N)cc21 [Compound 83] | 120 nM
Cn1nc(OC[C@H]2CCOC2)c2ncc(NC(=O)c3ncccc3N)cc21 [Compound 84] | 166 nM
Cn1nc(OCC2CCCOC2)c2ccc(NC(=O)c3ccccn3)cc21 (centres unmarked) [Compound 85] | 170 nM
Cn1nc(OCC2CCCOC2)c2ccc(NC(=O)c3ncccc3N)cc21 (centres unmarked) [Compound 86] | 182 nM
Cn1nc(OCC2CCCOC2)c2ccc(NC(=O)c3ncccc3O)cc21 (centres unmarked) [Compound 87] | 100 nM
Cn1nc(OCC2CCCOC2)c2ccc(Nc3n[nH]c4cccnc34)cc21 (centres unmarked) [Compound 88] | 63.8 nM
Cn1nc(OCC2CCCOC2)c2ncc(NC(=O)c3ncccc3N)cc21 (centres unmarked) [Compound 89] | 181 nM
Cc1ccc(C(=O)Nc2ccc3c(OCC4CCOC4)nn(C)c3c2)nc1 (centres unmarked) [Compound 90] | 574 nM
Cn1nc(OCC2CCOC2)c2ccc(NC(=O)c3ccc(F)cn3)cc21 (centres unmarked) [Compound 91] | 49.6 nM
Cn1nc(OCC2CCOC2)c2ccc(NC(=O)c3nccnc3N)cc21 (centres unmarked) [Compound 92] | 115 nM
Cn1nc(OC[C@@H]2COCCO2)c2ccc(NC(=O)c3ncccc3N)cc21 [Compound 93] | 30.5 nM
Cn1nc(OC[C@H]2COCCO2)c2ccc(NC(=O)c3ncccc3N)cc21 [Compound 94] | 58.7 nM
Cn1nc(OCC2CCOC2)c2ccc(NC(=O)c3cccc(F)n3)cc21 (centres unmarked) [Compound 95] | 211 nM

Structure (SMILES) | EC50
Cc1ccoc1C(=O)Nc1ccc2c(OCC3CCOC3)nn(C)c2c1 (centres unmarked) [Compound 96] | 339 nM
Cn1nc(OCC2CCOC2)c2ccc(NC(=O)c3ncccc3F)cc21 (centres unmarked) [Compound 97] | 505 nM
Cn1nc(OCC2CCOC2)c2ccc(NC(=O)c3cc(F)ccn3)cc21 (centres unmarked) [Compound 98] | 991 nM
Cn1nc(OCC2CCOC2)c2ccc(NC(=O)c3cccc(Cl)n3)cc21 (centres unmarked) [Compound 99] | 820 nM
Cn1nc(OCC2CCOC2)c2ccc(NC(=O)c3ncc(F)cc3F)cc21 (centres unmarked) [Compound 100] | 801 nM
Cn1nc(OCC2COC(C)(C)C2)c2ccc(NC(=O)c3ccccn3)cc21 (centres unmarked) [Compound 101] | 75.6 nM
Cn1nc(OCC2COC(C)(C)C2)c2ccc(NC(=O)c3ncccc3N)cc21 (centres unmarked) [Compound 102] | 109 nM
Cn1nc(OCC2COC(C)(C)C2)c2ccc(NC(=O)c3ccc(F)cn3)cc21 (centres unmarked) [Compound 103] | 297 nM
Cn1nc(OCC2CCOC(C)(C)C2)c2ccc(NC(=O)c3ccccn3)cc21 (centres unmarked) [Compound 104] | 58.8 nM
Cn1nc(OCC2CCOC(C)(C)C2)c2ccc(NC(=O)c3ncccc3N)cc21 (centres unmarked) [Compound 105] | 127 nM
Cn1nc(OCC2CCOC(C)(C)C2)c2ccc(NC(=O)c3ccc(F)cn3)cc21 (centres unmarked) [Compound 106] | 277 nM
CC1CC(COc2nn(C)c3cc(NC(=O)c4ccccn4)ccc23)CC(C)O1 (centres unmarked) [Compound 107] | 45.1 nM
CC1CC(COc2nn(C)c3cc(NC(=O)c4ncccc4N)ccc23)CC(C)O1 (centres unmarked) [Compound 108] | 187 nM
CC1CC(COc2nn(C)c3cc(NC(=O)c4ccc(F)cn4)ccc23)CC(C)O1 (centres unmarked) [Compound 109] | 83.6 nM
[2H]C([2H])([2H])n1nc(OCC2CCOC2)c2ccc(NC(=O)c3ccccn3)cc21 (centres unmarked) [Compound 110] | 50.4 nM
Cn1nc(C(=O)NC2CCOC2)c2ccc(NC(=O)c3ncccc3N)cc21 (centres unmarked) [Compound 111] | 421 nM
Cn1nc(OCC2COCCO2)c2ccc(Nc3n[nH]c4ncccc34)cc21 (centres unmarked) [Compound 112] | 176 nM
Cn1nc(OC2CCS(=O)(=O)CC2)c2ccc(NC(=O)c3ncccc3N)cc21 [Compound 113] | 142 nM
Cn1nc(OCC2CCOC2)c2ccc(NC(=O)c3ccccn3)cc21 (centres unmarked) [Compound 114] | 81.2 nM
Cn1nc(OCC2CCOC2)c2ccc(NC(=O)c3ncccc3N)cc21 (centres unmarked) [Compound 115] | 75.4 nM
Cn1nc(OCC2CCOCC2)c2ccc(NC(=O)c3ccccn3)cc21 [Compound 116] | 63 nM
Cn1nc(OCC2CCOCC2)c2ccc(NC(=O)c3ncccc3N)cc21 [Compound 117] | 87.7 nM
Cn1nc(OCC2CCOCC2)c2ccc(NC(=O)c3ncccc3O)cc21 [Compound 118] | 36.8 nM
Cn1nc(OC[C@@H]2COCCO2)c2ccc(NC(=O)c3ncccc3N)cc21 [Compound 130] | 24.6 nM
